Test results as given in PubChem BioAssay AID463074 (Broad Institute, 2010).
The source made the active and inactive calls.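 The calls were made as follows: active = AC50 no more than tenfold above the top dose tested, or full inhibition at every dose with a flat fit (cut at about 19 µM in these data); inconclusive = flat curve fit with inhibition between 30% and 70%, or poor fit; inactive = AC50 more than tenfold above the top dose tested.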

System: HMLE_sh_eGFP viability, CellTiter-Glo luminescence, 72 h
Assay: viability loss of HMLE_sh_eGFP cells – cell-based, luminescence, counter-screen for HMLE_sh_ECad selective toxicity project, dose response (AID 463074);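 also: counterscreen control line to flag general toxicity for the HMLE_sh_ECad screen; potency for loss of viability as luminescence drops below DMSO wells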

SMILES | AC50
O=C(CN(c1cccc(C(F)(F)F)c1)S(=O)(=O)c1ccc(Cl)c([N+](=O)[O-])c1)NCc1ccccc1Cl | 2.6 µM
Cc1cccc(C)c1NS(=O)(=O)c1ccc(NC(=O)c2ccc(Cl)c([N+](=O)[O-])c2)cc1 | 3.66 µM
O=C(Nc1ccc(Nc2ccccc2)cc1)c1cccc(F)c1 | 17.6 µM
Cc1sc(NC(=O)C2CCCCC2)c(C#N)c1-c1ccccc1 | > 19.5 µM (inactive)
O=C1c2ccccc2NC(c2ccc(-c3cccc(Cl)c3)o2)N1O (centres undefined) | 4.85 µM
N#Cc1c(-c2ccccc2)c(-c2ccccc2)nn(CC(=O)NNC(=O)Nc2ccc(Cl)c(Cl)c2)c1=O | 3.28 µM
Cc1ccc(NNC(=O)c2cccs2)cc1Cl | 2.19 µM
Cc1ccc(OCCSc2nc(NC(C)C)nc(NC(C)C)n2)cc1 | 1.46 µM
COc1cc(Cl)c(NC2=CC(=O)C(=O)c3ccccc32)c(OC)c1 | 3.57 µM
Cc1cccc(N2CCN(C(=S)Nc3ccc4nc(N5CCN(C)CC5)cc(C)c4c3)CC2C)c1 (centres undefined) | 7.35 µM
O=C(CSc1ncnc2nc[nH]c12)c1ccc(Cl)cc1 | 6.23 µM
O=C(Cn1ncc(Cl)c(Cl)c1=O)NC(=O)NC1CCCCC1 | 2.23 µM
CCOC(=O)c1[nH]c(C)c(C(=O)OCc2ccccc2F)c1C | 1.03 µM
Oc1ccc(C[C@@H]2CNC(=S)N2CCCCC2CCCCC2)cc1 | 6.13 µM
Cc1ccc(C(=O)C(C(=O)/C=C/c2ccccc2)=C2SCCCS2)cc1 | 1.56 µM
O=C(/C=C/c1c[nH]c2ccccc12)c1cccc2ccccc12 | 5.3 µM
NC(=O)CC(NC(=O)Cc1ccc(Br)cc1)c1ccc(N2CCC(Cc3ccccc3)CC2)c([N+](=O)[O-])c1 (centres undefined) | 14.7 µM
COc1ccc(-c2oc3ccccc3c2C#Cc2cncn2C)cc1 | 4.37 µM
Cc1ccc(-c2csc3ncnc(-n4cnc5ccccc54)c23)cc1 | 4.28 µM
CC(C)(Oc1ccc(Cl)cc1)C(=O)NC1=NN(c2ccccc2)C(=O)C1 | 6.11 µM
Cc1ccc(N=Nc2ccc(O)cc2)c(Br)c1 | 8.42 µM
Cc1ccc(NCc2ccc([N+](=O)[O-])s2)cc1 | > 19.5 µM (inactive)
O=[N+]([O-])c1cccc(C2NCC(c3ccccc3Cl)c3c2[nH]c2ccccc32)c1 (centres undefined) | 6.75 µM
Cc1ccc(/C=C/C(=O)Nc2ccc(Oc3ccccc3)cc2)o1 | 5.42 µM
Cc1nc(Nc2nc(CSc3nc4ccccc4[nH]3)cc(=O)[nH]2)nc2ccccc12 | 2.69 µM
Cc1ccc(S(=O)(=O)N(C)c2ccc(OCc3cccc(C)c3)cc2)cc1 | 1.99 µM

SMILES | AC50
COc1ccc(NC(=O)c2c(N)no[n+]2[O-])cc1 | 1.34 µM
Cc1cc(C(C)(C)C)ccc1OCCCCN1CCCC1 | 4.22 µM
O=C(N/N=C/c1cc(Br)ccc1O)C(=O)Nc1ccccc1OC(F)(F)C(F)F | 3.6 µM
CC(=O)C12CC(C)=C(C)CC1CC1C3CCC4=CC(=O)CCC4(C)C3CCC12C (centres undefined) | 6.65 µM
CCN(CC)CCSc1nnc2c3ccccc3n(Cc3ccccc3)c2n1 | 2.47 µM
COc1ccc(Cc2nnc(N/N=C/c3ccccc3O)[nH]c2=O)cc1OC | 3.4 µM
C[C@@H]1O[C@@H](O[C@@H]2C=C3CCC4C(CC[C@]5(C)[C@@H](c6ccc(=O)oc6)CC[C@]45O)[C@@]3(C)CC2)[C@H](O)[C@H](O)[C@H]1O (some centres undefined) | < 0.16 µM
Cc1cccc(OCCNc2cc(N3CCN(C)CC3)ccc2[N+](=O)[O-])c1 | 5.34 µM
CCOc1cc(S(=O)(=O)Nc2ccc(CC)cc2)ccc1Cl | 7.02 µM
COC(=O)C1=C(c2cccc(C#N)c2)C[C@@H]2CC[C@H]1N2C(=O)NC1Cc2ccccc2C1 | > 19.5 µM (inactive)
O=C(N/N=C/c1ccc(O)cc1O)/C(=C/c1ccccc1)CCO | 7.22 µM
COc1ccc(C(=O)/C=C/c2cc(OC)c(O)c(OC)c2)c(F)c1 | 12.3 µM
CCCCCCc1cc2cc(-c3nnc(-c4cc(OC)c(OC)c(OC)c4)o3)c(=O)oc2cc1O | 5.89 µM
Cn1nnnc1Sc1ncnc2scc(-c3ccc(Cl)cc3)c12 | 3.3 µM
O=C1CC(c2ccc(F)cc2)CC2=C1C=Nc1ccccc1N2 (centres undefined) | > 19.5 µM (inactive)
COc1cccc(/C=N/Nc2ncc(C(F)(F)F)cc2Cl)c1O | 0.665 µM
Cc1cccc(OCCNC(=O)c2cccc(Oc3ccc(C(F)(F)F)cc3[N+](=O)[O-])c2)c1 | 6.38 µM
CCN(CC)CCCNC(=O)c1cc(-c2ccccc2)c(N2CCCCC2)s1 | 3.29 µM
CC(C)C[C@H]1CN=C(Nc2ccccc2)N1CC1CCC(C(C)(C)C)CC1 (some centres undefined) | 5.34 µM
CCCOC(=O)c1ccc(Oc2c(-c3ccc(OCC)cc3O)n[nH]c2C)cc1 | 4.06 µM
CCC1=NN2C(=N)/C(=C/c3c(C)nn(-c4ccccc4)c3Cl)C(=O)N=C2S1 | > 19.5 µM (inactive)
O=[N+]([O-])c1cccc(-c2csc(N/N=C/c3cccc(O)c3)n2)c1 | 3.7 µM
Cc1cc(-c2csc3nc[nH]c(=S)c23)cc(C)c1C | 18.8 µM
O=C(Nc1ccc(NC(=S)NC(=O)c2ccccc2Cl)cc1)c1cccc(Cl)c1 | 17.8 µM
COc1ccccc1-c1oc2ccccc2c1C#CC1(N)CCCCC1 | 6.39 µM
O=Nc1c(O)n(Cc2ccc(Cl)cc2Cl)c2ccccc12 | 7.05 µM

SMILES | AC50
CCOc1cc(/C=C2/SC(=S)N(Cc3ccccc3)C2=O)ccc1O | 3.76 µM
CN1C(=O)/C(=C/c2cccc(Cl)c2)Sc2ccc(C(=O)NCc3cccnc3)cc21 | 5.15 µM
C=C1[C@@H](O)[C@@H]2O[C@]3(CC[C@H](/C=C/[C@@H](C)[C@@H]4CC(C)=CC5(O[C@H](C[C@@](C)(O)C(=O)OC)CC[C@H]5O)O4)O3)CC[C@H]2O[C@@H]1[C@@H](O)C[C@H](C)[C@H]1OC2(CCCCO2)CC[C@H]1C (some centres undefined) | < 0.16 µM
O=C(Nc1ccccc1)C1=C[C@@H](c2ccc(C(F)(F)F)cc2)C[C@@H](OCc2ccc(CO)cc2)O1 | 7.43 µM
Cc1ccc(C)c(NC(=O)c2ccccc2NS(=O)(=O)c2cc([N+](=O)[O-])ccc2C)c1 | 4.27 µM
COc1cc(-c2noc(C)c2C#Cc2ccccn2)cc(OC)c1OC | 1.16 µM
Cc1ccn2c(NCc3ccccc3)c(-c3cccc(SC4CCCCC4)c3)nc2c1 | 4.45 µM
CCc1cc(-c2n[nH]c(C)c2-c2ccccc2Cl)c(O)cc1OC | 3.77 µM
N/C(=N\N=C/c1ccc(Br)cc1)N/N=C\c1ccc(Br)cc1 | 3.83 µM
O=C(NCc1cccnc1)c1ccc(NC(=O)c2ccc(Br)cc2)cc1 | 3.11 µM
O=C(Nc1nccs1)c1ccc(COc2ccccc2Br)o1 | 4.84 µM
O=C(c1cnc2ccc3ccccc3c2c1)c1cc(F)ccc1O | 0.86 µM
CCOC(=O)C(C(=O)OCC)C(Nc1ccc(Br)cc1)c1ccccc1 (centres undefined) | 19.8 µM
O=C(N/N=C/c1cc(Cl)ccc1O)C(=O)Nc1ccccc1OC(F)(F)C(F)F | 3.9 µM
O=[N+]([O-])c1ccc(-c2nc(Nc3cccc(O)c3)c3ccccc3n2)cc1 | 3.89 µM
N=C(N)SCc1nc2ccccc2c(=O)n1-c1ccccc1Cl | 12.5 µM
C[C@@H](CSc1ccc(Br)cc1)CN1CC[C@H](NC(=O)OCc2ccccc2)CCC1=O | 5.5 µM
O=C(CN1CCCC1)Nc1ccc(Cl)cc1C(=O)c1ccccc1 | 15.3 µM
Cc1ccc(C(=O)N/C(=C\c2ccc(-c3ccc(Br)cc3)o2)C(=O)NCCCN(C)C)cc1 | 4.38 µM
Cc1ccc(NC(=O)c2nc(S(=O)(=O)Cc3ccccc3)ncc2Cl)cc1 | 6.39 µM
Cc1nn(-c2ccccc2)c(C)c1/C=N/n1c(-c2ccc(C(C)(C)C)cc2)n[nH]c1=S | 6.74 µM
Cc1noc(C)c1CSc1nc2ccccc2nc1NS(=O)(=O)c1ccc(Cl)cc1 | 1.79 µM
Cc1ccc2nc(NNC(=O)c3ccc(S(=O)(=O)N4CCc5ccccc5C4)cc3)sc2c1 | 3.91 µM
COc1cc(/C=C(/C#N)c2nc3ccccc3[nH]2)ccc1OCC(=O)Nc1ccccc1C | 1.06 µM
CC(NC(=O)COC(=O)c1cc(NS(=O)(=O)c2ccc(Cl)c([N+](=O)[O-])c2)ccc1O)C1CC2CCC1C2 (centres undefined) | 3.52 µM
O=c1c2ccccc2oc2ccc(C#CC3(O)CCCCC3)cc12 | 7.11 µM

SMILES | AC50
COC(=O)c1cc(=O)n(Cc2ccc(F)cc2)c(=Nc2ccccc2)s1 | 5.87 µM
O=S(=O)(c1cnc(Cl)c(Br)c1)N1CCc2ccccc21 | 6.77 µM
CCOC(=O)c1ccc(-n2[nH]c(-c3ccccc3)cc2=O)cc1 | 7.96 µM
CCn1c(C(=O)O)c(CC(=O)Nc2cccc(C(F)(F)F)c2)c2ccccc21 | 14.6 µM
O=C(/C=C/c1ccc(F)cc1)c1ccccc1Br | 3.57 µM
O=C(N/N=C/c1c[nH]c2ccccc12)C1CC1(c1ccccc1)c1ccccc1 (centres undefined) | 7.04 µM
CCc1ccc(CCC(=O)Nc2ncc(Cc3ccccc3Cl)s2)o1 | 0.322 µM
COc1ccc(-c2sc3ccccc3c2/C=C/c2ccc(N)cc2)cc1 | 15.8 µM
Cc1ccc([N+](=O)[O-])cc1-c1ccc(/C=C(\C#N)c2[nH]nc(N)c2C#N)o1 | 4.84 µM
Cc1ccc(/C=N/NC(=O)CNC(=O)COc2ccccc2)o1 | > 19.5 µM (inactive)
O=c1c2c3c(sc2ncn1/N=C/c1ccc([N+](=O)[O-])o1)CCCC3 | 6.48 µM
CCCCCc1cc(=O)oc2c(C(CCN3CCCC(C)C3)c3ccc(N(C)C)cc3)c(OC)cc(OC)c12 (centres undefined) | 6.69 µM
Cc1cccn2c(/C=N/OCc3cccc(F)c3)c(-c3ccc(Cl)cc3)nc12 | 10.5 µM
Cc1ccc(C(=O)/C=C/c2cc(Br)cc(Br)c2O)o1 | 3.57 µM
S=c1[nH]nc(-c2cc(-c3ccccc3)n[nH]2)n1/N=C/C(Br)=C/c1ccccc1 | 1.2 µM
O=[N+]([O-])c1c(NCCCO)cc(Sc2ccc(Cl)cc2)c2nonc12 | 4.89 µM
C[C@H]1[C@H](C)CC[C@]2(C)CC[C@]3(C)C(=CC(=O)C4[C@@]5(C)CC[C@H](O)C(C)(C)C5CC[C@]43C)[C@H]12 (some centres undefined) | 3.67 µM
CN(C)c1ccc(-n2cccc2/C=C/[N+](=O)[O-])cc1 | 3.63 µM
c1ccc(C[C@H]2CNCCN2CCCCC2CCCCC2)cc1 | 6.83 µM
Cc1c(O)cc2c(c1O)C(=O)CC(c1ccccc1)O2 (centres undefined) | 15.2 µM
COc1ccc(-c2nc(NC(=O)c3cc(C(C)(C)C)nn3C)sc2C)cc1 | 14.2 µM
c1ccc(-c2cc3c(NCC4COc5ccccc5O4)ncnc3s2)cc1 (centres undefined) | 4.99 µM
Cc1ccccc1/C=N/Nc1ccnc2cc(Cl)ccc12 | 4.44 µM
CC1S/C(=N/N=C/c2cccc([N+](=O)[O-])c2)NC1=O (centres undefined) | 3.48 µM
O=C1CC(N(CCc2ccccc2)C(=S)Nc2cc(Cl)ccc2Cl)C(=O)N1c1c(Cl)cccc1Cl (centres undefined) | > 19.5 µM (inactive)
Cc1ccc(Cl)cc1NC(=O)c1ccccc1OCC(=O)Nc1ccc(Cl)cc1 | 11.5 µM
